Experimental data as given in patent publication US20250255847A1, “[…]s: Novel Drugs for Triple Negative Breast Cancer” (SIMMARON RSEARCH INC, priority 2024, published 2025).

Key:
[1] = test system: TNBC tumor parenchyma; assay: Histology, IHC and TUNEL of PDX tumor tissue; assay type: in vivo, mouse; details: for H&E staining: size and color intensities of tumor cells: 2 mg/Kg Bwt i.p.; for apoptosis in TNBC tumor (TUNEL staining): FIG. 14; for Ki-67 immunoreactivity in tumor parenchyma: p<0.0001 vs control
Protocol: FIG. 13 illustrates an embodiment of the present invention and illustrates the effects of SIM-1 and SIM-2 on the growth arrest of TNBC tumors. […] The higher magnification images were given below. (B) Area of 50 randomly selected cells (10 different images from n=5 mice/group) from three different groups were measured using polygon tool of ImageJ software and then the scatter histogram analysis was performed using GraphPad Prism 10 statistical software package. The significance of mean between groups (***p<0.001 versus control) was calculated by one-way ANOVA analysis (effector: treatment). (C) IHC staining of cell growth marker Ki-67 in vehicle-, SIM-1-, and SIM-2-treated tumors represents the cell growth property of tumor cells. […] Both hematoxylin-ir nuclei (total cells) and Ki-67-ir cells were counted in n=15 images per group, converted in percent scale, and then plotted as scatter histogram. ****p<0.0001 vs. control as derived by one-way ANOVA. (E) IHC staining of cell proliferation marker PCNA in three different groups. (F) Scatter histogram analysis of […] counted from n=15 images per group and then plotted as percent scale. […] (G) A gene array of 84 genes in a validated human breast cancer gene array (RT^2 Profiler™ PCR array; Cat #PAHS-131ZA; Qiagen) was conducted in cDNA samples extracted from TNBC tumors of vehicle, SIM-1- and SIM-2-treated (n=3) groups. The resultant gene expressions were converted in log scale and then compared with the vehicle in (G) SIM-1 and (H) SIM-2 treated groups as shown in scatter plots. […] (I) Validation of gene expressions of CCND1, CCND2, CCNE1, CDK2 genes were performed by real-time PCR analysis. (J) Upregulations of CDKN1A, and CDKN2A in SIM-1- and SIM-2-treated groups were validated by real-time PCR analyses. were Significance of mean calculated by one-way ANOVA resulted […] versus respective vehicle-groups. The results are confirmed after three different experiments.
(A) TUNEL staining to monitor apoptosis of tumor cells among all groups followed by (B) counting of TUNEL-ir cells from n=15 images per group and then plotting a scatter histogram analysis. ****p<0.0001 vs. control as derived by one-way ANOVA. (C) A protein array of 35 different apoptosis-related proteins (Human apoptosis array; Cat #ARY009; R&D Systems) was conducted in the tumor tissue extracts of three different groups. Red, purple, and green squares represent the expressions of Bad, Bax, and Cytochrome C proteins respectively. Black enclosures represent the positive controls. (D) Heatmap analysis summarizes the expressions of breast cancer 84 validated breast cancer-associated genes (RT^2 Profiler™ PCR array; Cat #PAHS-131ZA; Qiagen). These genes critically regulate the growth and apoptosis of breast cancer cells. The details of the genes can be found here (geneglobe.qiagen.com/us/product-groups/rt2-profiler-pcr-arravs/PAHS-131Z). Scatter plot analyses in FIG. 13G and FIG. 13H was performed to compare the relative expressions of apoptotic genes and growth suppressive genes between the vehicle- and SIM-1-treated as well as the vehicle- and SIM-2-treated groups.
Immunohistochemical (IHC) analyses. Tumor tissues were embedded in paraffin, cut at a thickness of 5 μm in Leica microtome, attached to a charged slide, dried in a dry bath at 37° C. for at least 48 hrs., and then progressed for IHC analysis. The IHC analysis was performed where, briefly, sections were deparaffinized by xylene and rehydrated by ethanol gradient (100%>70%>50%>20%; v/v) followed by complete rehydration by water. […]

[2] = Solubility in aqueous solvent; assay type: physicochemical

Row | SMILES | H&E staining: size and color intensities of tumor cells [1] | apoptosis in TNBC tumor (TUNEL staining) [1] | Ki-67 immunoreactivity in tumor parenchyma [1] | solubility in aqueous solvent [2]
1 | O=C(O)CCC(=O)NCc1csc2ccc(Cl)cc12 [SIM-1, 4-[(5-chloro-1-benzothiophen-3-yl)methylamino]-4-oxobutanoic acid] | strongly reduced the size and color intensities of cells | weakly induced apoptosis | strong reduction | partly soluble to insoluble
2 | CCOC(=O)c1c(NC(C)=O)sc2c(Cl)c(/C=N/O)ccc12 [SIM-2, ethyl 2-acetamido-7-chloro-6-(hydroxyiminomethyl)-1-benzothiophene-3-carboxylate] | strongly reduced the size and color intensities of cells | weakly induced apoptosis | strong reduction | partly soluble to insoluble
